The text below walks through data of BindingDB's records for doi:10.1021/jm00011a020 (H. Lundbeck, 1995).

Molecules are shown by their SMILES.

This assay concerns the target Sigma-2 receptor (TMEM97) (Rattus norvegicus). In words: Binding affinity towards Sigma receptor site 2 in rat brain using [3H]DTG as radioligand.

Broadly, the IC50 is the midpoint of a concentration-inhibition curve. Low readings indicate greater potency in that assay, high ones weaker potency in that assay.

`Fc1ccc(-n2cc(CCCCN3CCC4(CCOc5ccccc54)CC3)c3ccccc32)cc1` [1'-{4-[1-(4-fluorophenyl)-1H-3-indolyl]butyl}spiro[3,4-dihydro-2H-chromene-4,4'-(hexahydropyridine)]] came in with an IC50 of 3 nM.
For `Fc1ccc(-n2cc(CCCCN3CCC4(CC3)OCc3cccc(F)c34)c3ccccc32)cc1` [1-[1-(4-fluorophenyl)-1H-3-indolyl]-4-[7-fluorospiro[1,3-dihydroisobenzofuran-1,4'-(hexahydropyridine)]-1-yl]butane], the IC50 stood at 0.58 nM.
`Fc1ccc(-n2cc(CCCCN3CCC4(CC3)Oc3ccccc3O4)c3ccccc32)cc1` [1'-{4-[1-(4-fluorophenyl)-1H-3-indolyl]butyl}spiro[benzo[d][1,3]dioxole-2,4'-(hexahydropyridine)]] had an IC50 of 270 nM.
`Fc1ccc(-n2cc(CCCCN3CCC4(CC3)COCc3ccccc34)c3ccccc32)cc1` [1'-{4-[1-(4-fluorophenyl)-1H-3-indolyl]butyl}spiro[3,4-dihydro-1H-isochromene-4,4'-(hexahydropyridine)]] had an IC50 of 0.34 nM.
Next, `c1ccc2c(c1)COC21CCN(CCCOC2CCCCC2)CC1` [1'-(3-cyclohexyloxypropyl)-3H-spiro[2-benzofuran-1,4'-piperidine]]: 0.07 nM; `Fc1ccc(-n2cc(CCCCN3CCC4(CC3)Cc3ccccc3CO4)c3ccccc32)cc1` [1'-{4-[1-(4-fluorophenyl)-1H-3-indolyl]butyl}spiro[3,4-dihydro-1H-isochromene-3,4'-(hexahydropyridine)]]: 1.1 nM; `Fc1ccc(-n2cc(CCCCN3CCC4(CC3)SCc3ccccc34)c3ccccc32)cc1` [1'-{4-[1-(4-fluorophenyl)-1H-3-indolyl]butyl}spiro[1,3-dihydrobenzo[c]thiophene-1,4'-(hexahydropyridine)]]: 0.14 nM.
`Fc1ccc(-n2cc(CCCCN3CCC4(CC3)COc3ccccc34)c3ccccc32)cc1` [1'-{4-[1-(4-fluorophenyl)-1H-3-indolyl]butyl}spiro[2,3-dihydrobenzo[b]furan-3,4'-(hexahydropyridine)]] showed an IC50 of 12 nM. Against the preceding compound, the IC50 is about 86-fold higher.
Turning to `c1ccc2c(c1)COC21CCN(CCCCC2CCCCC2)CC1` [1'-(cyclohexylbutyl)-3H-spiro[2-benzofuran-1,4'-piperidine]], the half-inhibitory concentration (IC50) came out at 0.07 nM.
Next, `Fc1ccc(-n2cc(CCCCN3CCC4(CC3)COc3ccccc3C4)c3ccccc32)cc1` [1'-{4-[1-(4-fluorophenyl)-1H-3-indolyl]butyl}spiro[3,4-dihydro-2H-chromene-3,4'-(hexahydropyridine)]]: 250 nM.
The figure for `Fc1ccc(-n2cc(CCCCN3CCC4(CC3)OCc3c(C(F)(F)F)cccc34)c3ccccc32)cc1` [1'-{4-[1-(4-fluorophenyl)-1H-3-indolyl]butyl}-4-trifluoromethylspiro[1,3-dihydroisobenzofuran-1,4'-(hexahydropyridine)]] is 2.6 nM.
The figure for `Fc1ccc(-n2cc(CCCCN3CCC4(CC3)Cc3ccccc3O4)c3ccccc32)cc1` [1'-{4-[1-(4-fluorophenyl)-1H-3-indolyl]butyl}spiro[2,3-dihydrobenzo[b]furan-2,4'-(hexahydropyridine)]] is 340 nM.
`Fc1ccc(-n2cc(CCCCN3CCC4(CC3)OCCc3ccccc34)c3ccccc32)cc1` [1'-{4-[1-(4-fluorophenyl)-1H-3-indolyl]butyl}spiro[3,4-dihydro-1H-isochromene-1,4'-(hexahydropyridine)]]: the IC50 came out at 0.9 nM.
The figure for `c1ccc(CCN2CCC3(CC2)OCc2ccccc23)cc1` [1'-(2-phenylethyl)-3H-spiro[2-benzofuran-1,4'-piperidine]] is 2.9 nM; for `Fc1ccc(-n2cc(CCCCN3CCC4(CC3)OCc3c(F)cccc34)c3ccccc32)cc1` [1-[1-(4-fluorophenyl)-1H-3-indolyl]-4-[4-fluorospiro[1,3-dihydroisobenzofuran-1,4'-(hexahydropyridine)]-1-yl]butane] it is 1.8 nM.
